“Also recorded” adds a separate entry of the source. Like-named read-outs stand apart in the source and are kept apart here.
How the values were obtained:
HAP1 SLC16A1^−/− cells [1] = assay: Synthetic lethality guided viability screening (CellTiter Glo), HAP1 SLC16A1-/- cells (SLC16A3-dependent); format: cell-based; settings: for IC50 / viability at 10 µM: Homo sapiens; for IC50: from dose response curves; for viability at 10 µM: read-out: HAP1 SLC16A1^−/− % of viability
Procedure: (§1) Compounds were printed to individual wells of 384 well plates (Corning) with Echo acoustic liquid dispenser (Labcyte). HAP1 cells were seeded using a dispenser (Thermo Fischer Scientific) in density 1,000 cells per well in 50 μl. As controls, DMSO or Bortezomib treatments were used. Viability of cells was assessed after 72 hours with CellTiter Glo (Promega) and % of controls were calculated based on RLU values in DMSO (100%) and Bortezomib (0%) wells. First screening was performed in 10 μM final concentration. Second screening was performed in technical duplicates, in 4 point dose response setting, with concentrations ranging from 13-0.5 μM. Third screening was performed in technical triplicates in 6 point dose response setting, with concentrations ranging from 27-0.11 μM. LAMA84 cells were used in density 3,000 cells per well. AZD3965, BAY-8002, syrosingopine and compounds obtained from third party vendors were tested in 96 well plates, with 2,500 cells per well with manual seeding and treatment. Compound efficacy was determined either by comparing % of control, or by IC50 estimation based on dose response curves (calculated with R package drc, or with GraphPad Prism).
(§2) Table 1: Results of synthetic lethality guided chemical screening assay. HAP1 WT, HAP1 SLC16A1^−/− or HAP1 SLC16A3^−/− cell lines were treated with presented compounds for 72 hours and viability was determined by Cell titer glo assay (Promega). Data are presented either as a percentage of viability in HAP1 SLC16A1^−/− cells compared to controls (DMSO=100% and Bortezomib=0%) upon single dose treatment (10 μM) or as IC50 values obtained from dose response curves.

HAP1 SLC16A3^−/− cells [2] = assay: Synthetic lethality guided viability screening (CellTiter Glo), HAP1 SLC16A3-/- cells (SLC16A1-dependent); format: cell-based; settings: for IC50: Homo sapiens, HAP1, 72 hours, Cell titer glo, from dose response curves, read-out: HAP1 SLC16A31^−/− IC50
Procedure: as §1, §2

HAP1 WT cells = assay: Synthetic lethality guided viability screening (CellTiter Glo), HAP1 WT cells; format: cell-based; settings: Homo sapiens, 72 hours, Cell titer glo, from dose response curves
Procedure: as §1, §2

SLC16A3 = target: T1, SLC16A3 (Homo sapiens, UniProt O15427); assay: Cellular Thermal Shift Assay (CETSA), HEK293T lysates with HIBIT-tagged SLC16A3; format: binding; settings: HEK293T lysate, HIBIT-tagged SLC16A3, split-nano luciferase readout
T1 construct: expressed in transfected cells; lysate supernatant used
T1 sequence (O15427 1-465): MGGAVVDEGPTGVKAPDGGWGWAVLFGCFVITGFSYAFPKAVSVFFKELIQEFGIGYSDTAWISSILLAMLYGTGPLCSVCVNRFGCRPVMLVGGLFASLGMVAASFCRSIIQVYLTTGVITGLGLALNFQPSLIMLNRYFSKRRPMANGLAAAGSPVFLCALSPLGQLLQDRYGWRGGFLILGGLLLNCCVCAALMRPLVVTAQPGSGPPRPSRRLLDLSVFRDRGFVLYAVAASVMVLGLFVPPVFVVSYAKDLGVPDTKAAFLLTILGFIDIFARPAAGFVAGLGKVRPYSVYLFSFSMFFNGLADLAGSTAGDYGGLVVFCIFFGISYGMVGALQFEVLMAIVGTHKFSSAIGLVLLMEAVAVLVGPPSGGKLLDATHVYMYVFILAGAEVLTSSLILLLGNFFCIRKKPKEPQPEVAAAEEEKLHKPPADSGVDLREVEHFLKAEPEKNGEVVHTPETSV
Procedure: HEK293T cells with stable expression of HIBIT-tagged SLC16A3 were lysed as described in Hashimoto M et al., ACS Chemical Biology, 2018, 13(6):1480-86. Lysates were then centrifugated at 14,000 RPM, 20 min at 4° C. Supernatant were next incubated with tested compounds or DMSO on ice for 1 hour. After that samples were aliquoted to PCR strips, heated in gradient thermocycler for 6 min and let cool down at room temperature (RT) for 3 min. Samples were then centrifugated at 14,000 RPM, 40 min at 4° C. and protein abundance in supernatants was determined using HIBIT lytic detection system (Promega) in 384 well plate. Reagents for HIBIT detection were diluted in lysis buffer (Hashimoto M et al., loc. cit.) instead of buffer provided with kit. All measurements were done in technical triplicate.

HAP1 SLC16A1^−/− cells [3] = assay: Lactate Glo lactate accumulation, HAP1 SLC16A1-/- cells; format: cell-based; settings: 10 μM, 6 hours
Procedure: (§3) Protocol for lactate glo was modified based on Benjamin D et al., Cell Reports, 2018, 25(11):3047-3058.e4. Cells were seeded in 96 well plate in density 30,000 cells per well. Next day cells were treated with tested compounds, AZD3965 and syrosingopine (all in final concentration of 10 μM) or DMSO. After 6 hours of incubation at 37° C., cells were washed twice with PBS, lysed with 0.2N HCl, neutralized with 1M Tris-base (Sigma) and incubated for 1 hour at RT with lactate glo reagents (Promega). Lactate accumulation was then estimated based on luminescence signal.

HAP1 SLC16A3^−/− cells [4] = assay: Lactate Glo lactate accumulation, HAP1 SLC16A3-/- cells; format: cell-based; settings: 10 μM, 6 hours
Procedure: as §3

[5] = tested on: cells dependent on SLC16A3 in HAP1 and LAMA84 cell lines; assay: Selectivity counter screen, HAP1 and LAMA84 cell line panel; format: cell-based; settings: panel incl. LAMA84 sgRen/sgSLC16A1/sgSLC16A3, HAP1 dependent on SLC16A7 or SLC16A8, rescue lines
Procedure: as §1
To get further insights into the selectivity and mode of action of these hits, the inventors created a selection of compounds with similar structure to their hits from the whole library and tested those further. […]

NCIH358 cells = assay: Lactate Glo lactate accumulation, NCIH358 lung cancer cells; format: cell-based; settings: 10 μM, 6 hours
Procedure: as §3

NCIH441 cells = assay: Lactate Glo lactate accumulation, NCIH441 lung cancer cells; format: cell-based; settings: 10 μM, 6 hours
Procedure: as §3

HAP1 SLC16A1^−/− cells [6] = assay: Growth curve, HAP1 SLC16A1-/- cells; format: cell-based; settings: different concentrations; counted 24 h, 48 h, 72 h
Procedure: Cells were seeded in 6 well plate in density of 15,000 cells per well in the presence of different concentrations of tested compounds in DMSO, or matching DMSO concentrations. Cells were washed with PBS, harvested with trypsin and counted with CASY counter (Roche) 24 h, 48 h and 72 h after the seeding. Cell number obtained at 24 h was set as 0, for each time point and concentration two wells were harvested and counted.

[7] = tested on: HAP1 dependent on SLC16A7; assay: Viability of HAP1 cells dependent on SLC16A7; format: cell-based; settings: SLC16A7 overexpressed in HAP1 SLC16A3^−/−, SLC16A1 knocked out
Excerpt: To test this, the inventors overexpressed SLC16A7 or SLC16A8 in HAP1 SLC16A3^−/− cells and knocked out SLC16A1 using CRISPR/Cas9. […]

[8] = HAP1, single dose 10 μM, 72 hours, Cell titer glo, compared to controls DMSO=100%, Bortezomib=0%

Compound | IC50 (HAP1 SLC16A1^−/− cells [1]; HAP1, 72 hours, Cell titer glo) [µM] | IC50 (HAP1 SLC16A3^−/− cells [2]) [µM] | IC50 (HAP1 WT cells) [µM] | further results
Cc1ccc(NC(=O)CCc2c(C)nc3nc(C(F)(F)F)nn3c2C)cc1 [Compound 1] | 3.32 | > 30 | > 30 | –
CSc1nc2nc(C)c(CCC(=O)Nc3cc(C)cc(C)c3)c(C)n2n1 [Compound 4] | 1.83 | > 30 | > 30 | –
CCOC(=O)Oc1c(OC)cc(C(=O)O[C@@H]2C[C@@H]3CN4CCc5c([nH]c6cc(OC)ccc56)[C@H]4C[C@@H]3[C@H](C(=O)OC)[C@H]2OC)cc1OC [syrosingopine, reference compound] | – | – | – | effect on viability of HAP1 SLC16A1^−/− cells (in words) (HAP1 SLC16A1^−/− cells [1]): decreased viability
Cc1nc2nc(C(F)(F)F)nn2c(C)c1CCC(=O)Nc1ccncc1 [Compound 7] | 11.2 | > 30 | > 30 | –
Cc1nc2nc(C)c(CCC(=O)Nc3ccc(C)c(C)c3)c(C)n2n1 [Compound 13] | – | – | – | viability at 10 µM (HAP1 SLC16A1^−/− cells [1]; [8]): 37%; shift in melting temperature of SLC16A3 (CETSA) (SLC16A3): showed a shift in melting temperature of SLC16A3; lactate accumulation in HAP1 SLC16A1^−/− cells (HAP1 SLC16A1^−/− cells [3]): lactate accumulation comparable to control (syrosingopine); also recorded: significant lactate accumulation was observed; lactate accumulation in HAP1 SLC16A3^−/− cells (HAP1 SLC16A3^−/− cells [4]): no accumulation was observed; also recorded: did not affect lactate accumulation; selective killing in HAP1 and LAMA84 cell line panel (in words) [5]: selectively kill only cells dependent on SLC16A3
CSc1nc2nc(C)c(CCC(=O)Nc3ccc(C)cc3)c(C)n2n1 [Compound 3] | 2.34 | > 30 | > 30 | –
Cc1nc2nc(C(F)(F)F)nn2c(C)c1CCC(=O)Nc1cnc2ccccc2c1 [Compound 8] | 0.25 | > 30 | > 30 | lactate accumulation in NCIH358 cells (NCIH358 cells): confirmed the lactate accumulation in both cell lines; lactate accumulation in NCIH441 cells (NCIH441 cells): confirmed the lactate accumulation in both cell lines; growth rate / proliferation of HAP1 SLC16A1^−/− cells (HAP1 SLC16A1^−/− cells [6]): confirmed the growth reducing effect; also recorded: slowed down the proliferation in a dose-dependent manner
Cc1nc2ncnn2c(C)c1CCC(=O)Nc1ccc(S(=O)(=O)N2CCCCCC2)cc1 [Compound 9] | 1.98 | > 30 | > 30 | –
O=C(Nc1ccccc1C(=O)O)c1cc(S(=O)(=O)c2ccccc2)ccc1Cl [BAY-8002, reference compound] | – | – | – | effect on viability of HAP1 SLC16A3^−/− cells (in words) (HAP1 SLC16A3^−/− cells [2]): reduced viability; killing of HAP1 cells dependent on SLC16A7 (in words) [7]: can be killed
Cc1nc2nc(C)c(CCC(=O)Nc3ccc(Br)c(C)c3)c(C)n2n1 [Compound 11] | – | – | – | viability at 10 µM (HAP1 SLC16A1^−/− cells [1]; [8]): 33.7%
CCc1ccc(NC(=O)CCc2c(C)nc3nc(C)nn3c2C)cc1 [Compound 14] | – | – | – | viability at 10 µM (HAP1 SLC16A1^−/− cells [1]; [8]): 37.5%
Cc1nc2nc(C(F)(F)F)nn2c(C)c1CCC(=O)Nc1ccccc1 [Compound 19] | 8.94 | > 30 | > 30 | –
Cc1nc2nc(C(F)(F)F)nn2c(C)c1CCC(=O)Nc1ccc(S(=O)(=O)N2CCCC2)cc1 [Compound 6] | 0.41 | > 30 | > 30 | –
Cc1cc(NC(=O)CCc2c(C)nc3nc(C(F)(F)F)nn3c2C)ccc1N1CCN(C)CC1 [Compound 5] | 5.87 | > 30 | > 30 | –
CCOc1ccc(NC(=O)CCc2c(C)nc3nc(C)nn3c2C)cc1 [Compound 15] | – | – | – | viability at 10 µM (HAP1 SLC16A1^−/− cells [1]; HAP1, 72 h): 38.5%
Cc1cc(C)cc(NC(=O)CCc2c(C)nc3nc(C(F)(F)F)nn3c2C)c1 [Compound 2] | 4.13 | > 30 | > 30 | –
Cc1[nH]nc(C(F)(F)F)c1Cc1sc2c(c1C(=O)N1C[C@](C)(O)CO1)c(=O)n(C)c(=O)n2C(C)C [AZD3965, reference compound] | – | – | – | effect on viability of HAP1 SLC16A3^−/− cells (in words) (HAP1 SLC16A3^−/− cells [2]): reduced viability; killing of HAP1 cells dependent on SLC16A7 (in words) [7]: can be killed
COc1ccc(NC(=O)CCc2c(C)nc3nc(C)nn3c2C)cc1 [Compound 17] | – | – | – | viability at 10 µM (HAP1 SLC16A1^−/− cells [1]; HAP1, 72 h): 44.4%
Cc1nc2nc(C)c(CCC(=O)Nc3ccc(Br)cc3)c(C)n2n1 [Compound 16] | – | – | – | viability at 10 µM (HAP1 SLC16A1^−/− cells [1]; [8]): 38.7%
CCOc1ccc(NC(=O)CCc2c(C)nc3ncnn3c2C)cc1 [Compound 10] | 7.07 | > 30 | > 30 | viability at 10 µM (HAP1 SLC16A1^−/− cells [1]; [8]): 70.8%
CCc1cccc(NC(=O)CCc2c(C)nc3nc(C)nn3c2C)c1 [Compound 12] | – | – | – | viability at 10 µM (HAP1 SLC16A1^−/− cells [1]; [8]): 36.4%
Cc1nc2nc(C(F)(F)F)nn2c(C)c1CCC(=O)Nc1cccnc1 [Compound 18] | 8.41 | > 30 | > 30 | –

Reference: patent US20240270749A1, “1,2,4-TRIAZOLO[1,5-A]PYRIMIDINE-BASED SLC16A3 INHIBITORS AND THEIR THERAPEUTIC USE” (CEMM - FORSCHUNGSZENTRUM FÜR MOLEKULARE MEDIZIN GMBH, priority 2021, published 2024)
